Laboratory results published in the supplement of paper PMC11061612.

Experiments:
Assay in all cases: Bliss excess, mean over the matrix (fraction); higher = more synergy
[1] = system: BFTC-905 (Bladder Carcinoma)
Summary of the method: (§1)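 Bliss excess equals the observed combination effect minus the expected value EA + EB − EA·EB, where EA and EB are the effects of each agent alone. Combination Emax is the second-highest inhibition within the matrix. Inhibition was scaled from CellTiter-Glo 2.0 luminescence, with 0 set by vehicle wells and 1 by blank wells, after 72 hours of two-drug dosing of cells plated in 1536-well plates.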

CHP-212 (Neuroblastoma) = system: CHP-212 (Neuroblastoma)
Summary of the method: as §1

[2] = system: COLO-678 (Colorectal Carcinoma)
Summary of the method: as §1

[3] = system: DND-41 (T-Lymphoblastic Leukemia)
Summary of the method: as §1

ES1 (Ewing's Sarcoma) = system: ES1 (Ewing's Sarcoma)
Summary of the method: as §1

[4] = system: GR-ST (B-Lymphoblastic Leukemia)
Summary of the method: as §1

[5] = system: HL-60 (Acute Myeloid Leukemia)
Summary of the method: as §1

[6] = system: K-562 (Chronic Myelogenous Leukemia)
Summary of the method: as §1

[7] = system: KARPAS-45 (T-Lymphoblastic Leukemia)
Summary of the method: as §1

[8] = system: KCL-22 (Chronic Myelogenous Leukemia)
Summary of the method: as §1

[9] = system: KM12 (Colorectal Carcinoma)
Summary of the method: as §1

[10] = system: L-540 (Hodgkin's Lymphoma)
Summary of the method: as §1

LN-18 (Glioblastoma) = system: LN-18 (Glioblastoma)
Summary of the method: as §1

[11] = system: MOLT-16 (T-Lymphoblastic Leukemia)
Summary of the method: as §1

NCI-H2818 (Mesothelioma) = system: NCI-H2818 (Mesothelioma)
Summary of the method: as §1

[12] = system: PANC-08-13 (Pancreatic Carcinoma)
Summary of the method: as §1

[13] = system: SR (Other Blood Carcinomas)
Summary of the method: as §1

[14] = system: SW837 (Colorectal Carcinoma)
Summary of the method: as §1

[15] = system: TOV-112D (Ovarian Carcinoma)
Summary of the method: as §1

WM-115 (Melanoma) = system: WM-115 (Melanoma)
Summary of the method: as §1

SMILES	Bliss excess [1]	Bliss excess (CHP-212 (Neuroblastoma))	Bliss excess [2]	Bliss excess [3]	Bliss excess (ES1 (Ewing's Sarcoma))	Bliss excess [4]	Bliss excess [5]	Bliss excess [6]	Bliss excess [7]	Bliss excess [8]	Bliss excess [9]	Bliss excess [10]	Bliss excess (LN-18 (Glioblastoma))	Bliss excess [11]	Bliss excess (NCI-H2818 (Mesothelioma))	Bliss excess [12]	Bliss excess [13]	Bliss excess [14]	Bliss excess [15]	Bliss excess (WM-115 (Melanoma))
Cc1c2c(nn1C)CSCc1cc(n(C)n1)CSc1cc(c3ccccc3c1)OCCCc1c(C(=O)O)n(C)c3c-2c(Cl)ccc13 [AZD5991] + Cc1cc2ncnn2cc1Nc1ncc2c(n1)n(C1CCOCC1)c(=O)n2C [AZD7648] (first compound max 1 µM, 7x7, partner max 10 µM)	-0.0282	0.0203	-0.0416	-0.0023	-0.013	-0.149	0.0014	0.0044	-0.0163	-0.0086	-0.0073	-0.0036	-0.025	-0.023	-0.0757	0.0012	0.0257	-0.0454	-0.0214	-0.11
Cc1c2c(nn1C)CSCc1cc(n(C)n1)CSc1cc(c3ccccc3c1)OCCCc1c(C(=O)O)n(C)c3c-2c(Cl)ccc13 [AZD5991] + Cn1cnc2c(F)c(Nc3ccc(Br)cc3Cl)c(C(=O)NOCCO)cc21 [Selumetinib] (first compound max 1 µM, 7x7, partner max 3 µM)	0.0136	-0.0136	-0.0226	0.021	0.0123	-0.0495	0.0587	0.0393	0.011	0.078	-0.0063	0.0007	0.0745	-0.0205	-0.0458	0.0025	-0.0007	0.0024	0.0038	-0.0114
C[C@@H]1COCCN1c1cc(C2([S@](C)(=N)=O)CC2)nc(-c2ccnc3[nH]ccc23)n1 [AZD6738] + O=C(c1cc(Cc2n[nH]c(=O)c3ccccc23)ccc1F)N1CCN(C(=O)C2CC2)CC1 [Olaparib] (first compound max 10 µM, 7x7, partner max 10 µM)	0.0156	-0.0095	-0.0046	-0.0128	-0.0157	-0.0471	-0.0275	-0.0646	0.0023	-0.0454	0.0138	-0.022	0.0598	-0.0064	0.0285	0.0021	0.024	0.0093	0.0206	0.0166
Cc1cc2ncnn2cc1Nc1ncc2c(n1)n(C1CCOCC1)c(=O)n2C [AZD7648] + C=CCn1c(=O)c2cnc(Nc3ccc(N4CCN(C)CC4)cc3)nc2n1-c1cccc(C(C)(C)O)n1 [AZD1775] (first compound max 10 µM, partner max 1 µM)	0.022	0.0249	-0.0224	-0.0109	0.0181	-0.117	-0.0457	0.0017	0.0367	0.0015	-0.0388	0.0106	0.0161	0.0163	0.0563	-0.0266	-0.0375	0.0241	-0.0325	0.0217
Cc1cc2ncnn2cc1Nc1ncc2c(n1)n(C1CCOCC1)c(=O)n2C [AZD7648] + CCN(CCO)CCCOc1ccc2c(Nc3cc(CC(=O)Nc4cccc(F)c4)[nH]n3)ncnc2c1 [AZD2811] (first compound max 10 µM, 7x7, partner max 1 µM)	0.0469	-0.0162	-0.0119	0.0308	0.0855	-0.0705	-0.0639	0.0127	-0.0341	0.115	0.004	0.048	0.0208	0.0058	0.0283	0.0006	-0.0225	0.0018	0.0263	0.0205
Cc1cc2ncnn2cc1Nc1ncc2c(n1)n(C1CCOCC1)c(=O)n2C [AZD7648] + CN(C)CCCOc1ccc(-c2ccc3ncc4c(c3c2)n(C2CCOCC2)c(=O)n4C)cn1 [AZD0156] (first compound max 10 µM, 7x7, partner max 1 µM)	0.0314	0.0036	-0.0231	0.0251	0.0136	-0.0687	0.0176	-0.0026	-0.0274	0.0542	0.0312	-0.0074	0.0013	0.0841	-0.0055	-0.0359	0.0078	0.0255	0.0307	-0.0098
Cc1cc2ncnn2cc1Nc1ncc2c(n1)n(C1CCOCC1)c(=O)n2C [AZD7648] + C[C@@H]1COCCN1C2=NC(=NC(=C2)C3(CC3)[S@](=N)(=O)C)C4=C5C=CNC5=NC=C4 [AZD6738] (first compound max 10 µM, 7x7, partner max 10 µM)	0.0081	-0.0035	-0.0346	-0.01	-0.0001	-0.116	-0.0079	-0.0096	0.0129	0.0341	0.0057	-0.0031	-0.0084	-0.0368	0.0738	0.0227	0.0148	-0.0077	0.0024	0.0145
